# Values of other authors in patent publication US20240016803A1, “PHARMACEUTICAL COMPOSITION COMPRISING EICOSAPENTAENOIC ACID AND DERIVATIVES THEREOF AND A STATIN” (Amarin Pharmaceuticals Ireland Limited, priority 2013, published 2024).
# Conditions: repeated twice-daily dosing of 2 icosapent ethyl 1 g capsules (4 g/d total); previously reported
smiles,measurement,value
CC/C=C\C/C=C\C/C=C\C/C=C\C/C=C\CCCC(=O)OCC [icosapent ethyl],mean elimination half-life (t1/2) for total plasma EPA,89 h
